Each structure is given as a SMILES string.

Test [1] concerns HEPG2 cells. Put plainly: Fluorescence imaging of RDP-1 with HEPG2 cells (PalmB, palmitate). The format is cell-based, human. The note with it: palmitate pretreatment for 6 hours. As to the method:
HEPG2 were plated with […] of DMEM (Gibco, Gaithersburg, Md., United States of America; High Glucose, Glutamax, 10% FBS) a four well chambered imaging dish (D35C4-20-1.5-N, Cellvis, Mountain View, Calif., United States of America) which were precoated with 4 μg Poly-D-lysine (30-70 KDa, Alfa Aesar, Haverhill, Mass., United States of America) for 2 h at room temperature or overnight at 4° C. and grown to ca. 80% confluence prior to imaging. 30 min before the addition of the RDP, the cell culture media was removed and cells were washed with 500 μL of serum-free DMEM (Gibco, Gaithersburg, Md., United States of America; High Glucose, Glutamax, no FBS). The media was then replaced with 500 μL of serum-free DMEM containing 100 nM Mitotracker Deep Red (Thermo Fisher Scientific, Waltham, Mass., United States of America) to assist in focusing and processing) and either 0.1% DMSO carrier as a control or Palm B in DMSO and incubated for 30 min at 37° C. and 5% CO2. The media was removed, the cells were washed with 500 μL of Live Cell Imaging Solution (Thermo Fisher Scientific, Waltham, Mass., United States of America), and 500 μL of 1 μM RDP-1 along with the Palm B or DMSO as control in Live Cell Imaging Solution was added to each well. […]

The test system of test [2] is HEPG2 cells. The experiment in a line: Epifluorescent imaging of DPP-5 and diacetyl rhodol in HepG2 cells (PalmB, ML348, ML349, palmitate). It is filed as cell-based, human. Conditions: 1 mM palmitate for 6 hours post-starvation. Here is the method: 250,000 HEK293T cells/well, 120,000 HeLa cells/well, or 100,000 HepG2 cells/well were plated in 700 μL DMEM glutamax (10% FBS+1% P/S) into 4-well chambered imaging dish (D35C4-20-1.5-N, Cellvis, Mountain View, Calif., United States of America), which were precoated with 5 μg Poly-D-lysine (30-70 KDa, Alfa Aesar, Haverhill, Mass., United States of America) for 2 h. After 20-24 h, the media was replaced by 1 μM Hoechst 33342 and DMSO/5 μM PalmB in 400 μL DMEM glutamax. After 30 min of incubation at 37° C., the cells were washed with 400 μL of Live Cell Imaging Solution and replaced by 1 μM DPP-5 with DMSO or 5 μM of PalmB in Live Cell Imaging Solution. After 20 min of incubation at 37° C., images were obtained on an inverted epifluorescence microscope (Olympus IX83; Olympus Corporation, Tokyo, Japan) attached with EMCCD camera (Photometrics EVOLVE™ Delta, Photometrics, Tucson, Ariz., United States of America) with 40× oil objective (N/A 1.3) for DPP-5 (excitation filter 500/20, dichroic chroma 89007, emission filter 535/30), Hoechst 33342 (excitation filter 402/15, emission filter 455/50, dichroic chroma 89013), and brightfield. Analyses were performed in ImageJ. For data analysis, the average fluorescence intensity per image in each experimental condition was obtained by selecting ROI in Brightfield and applying that to the corresponding DPP-5 image, average background fluorescence intensity was subtracted and data was normalized to the average fluorescence intensity of the DMSO control. Each experiment was repeated in at least two biological replicates with identical results.
16,000 HepG2 cells/well were plated in 100 μL DMEM glutamax (10% fetal bovine serum (FBS)) into 4 wells of a 96-well chambered imaging dish (P96-1-N, Cellvis, Mountain View Calif., United States of America), which were precoated with 0.7 μg Poly-D-lysine (30-70 KDa, Alfa Aesar, Haverhill, Mass., United States of America) for 2 hrs. After 24 h, cells were washed with Live Cell Imaging Solution and replaced by 1 μM Hoechst 33342 and DMSO/10 μM ML348/10 μM ML349/10 μM of both ML348 and ML349 in 100 μL DMEM glutamax. After 30 min of incubation at 37° C., the cells were washed with 100 μL of Live Cell Imaging Solution and replaced by 1 μM DPP-5 in Live Cell Imaging Solution. After 20 min of incubation at 37° C., images were obtained on an inverted epifluorescence microscope (Leica DMi8; Leica Microsystems, Wetzlar, Germany) equipped with a camera (Hamamatsu Orca-Flash 4.0; Hamamatsu, Hamamatsu City, Japan) with 63× oil objective (N/A 1.4) and light source (Sutter Lamda XL, 300 W Xenon; Sutter Instrument, Novato, Calif., United States of America) for DPP-5 (YFP filter cube 1525306), Hoechst 33342 (DAPI filter cube), and brightfield using Leica LASX software (Leica Microsystems, Wetzlar, Germany). Analyses were performed in ImageJ. Each experiment was repeated in three biological replicates and 8-12 images were considered for plotting bar graphs for quantification. For detailed data analysis, the average fluorescence intensity per image in each experimental condition was obtained by selecting ROI in Brightfield and applying that to the corresponding DPP-5 image, average background fluorescence intensity was subtracted and data was normalized to the average fluorescence intensity of the control experiment. […] 250,000 HEK293T cells/well were plated in 700 μL DMEM glutamax (10% FBS+1% P/S) into three wells of a 4-well chambered imaging dish (D35C4-20-1.5-N, Cellvis, Mountain View, Calif., United States of America), which were precoated with 5 μg Poly-Dlysine (30-70 KDa, Alfa Aesar, Haverhill, Mass., United States of America) for 2 h. After 18 h, the media was replaced by 1 μM Hoechst 33342 in 400 μL DMEM glutamax. […] After 20 min of incubation at 37° C., images were obtained and analyzed as described above. […]

Turning to `CCCCCCCCCCCCCCCC(=O)[O-].[Na+]` [palmitate, sodium palmitate], in the test with HEPG2 cells [1], the “effect on APT activity as measured by RDP-1” value was “a decrease in APT activity”. Also, the “increase in intensity of S-depalmitoylase signal as measured by DPP-5” value with HEPG2 cells [2] is ~50%.

The values are drawn from patent publication US10413583B2, “Synthetic substrates for enzymes that catalyze reactions of modified cysteines and related methods” (The University of Chicago, priority 2016, dated 2019).
